Laboratory results published in the supplement of paper PMC7661543.
± gives the standard deviation of the averaged measurements.

Columns and labels:
Experiment in all cases: relative cell number vs DMSO control (72 h) (% of DMSO); higher = less growth inhibition (more cells)
Conditions in all cases: sgRNA knockout: sgNT
[1] = test system: BT-20
Procedure: (§1)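 QMAP-Seq: a pool of 5 breast cancer cell lines (ZR-75-1, SKBR3, HCC-38, MDA-MB-231, BT-20), each carrying 12 doxycycline-inducible Cas9 sgRNA perturbations (11 knockouts plus non-targeting sgNT), was treated with compounds for 72 h at four 10-fold doses (10 nM-10 uM or 1 nM-1 uM range). Barcodes were amplified and sequenced, and cell number was interpolated from 293T spike-in standard curves. The result is expressed as % of the median of DMSO wells. Two biological replicates.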

[2] = test system: HCC-38
Procedure: as §1

[3] = test system: MDA-MB-231
Procedure: as §1

[4] = test system: SKBR3
Procedure: as §1

[5] = test system: ZR-75-1
Procedure: as §1

SMILES	relative cell number ([1]; 10 nM)	relative cell number ([1]; 100 nM)	relative cell number ([1]; 1000 nM)	relative cell number ([1]; 10000 nM)	relative cell number ([2]; 10 nM)	relative cell number ([2]; 100 nM)	relative cell number ([2]; 1000 nM)	relative cell number ([2]; 10000 nM)	relative cell number ([3]; 10 nM)	relative cell number ([3]; 100 nM)	relative cell number ([3]; 1000 nM)	relative cell number ([3]; 10000 nM)	relative cell number ([4]; 10 nM)	relative cell number ([4]; 100 nM)	relative cell number ([4]; 1000 nM)	relative cell number ([4]; 10000 nM)	relative cell number ([5]; 10 nM)	relative cell number ([5]; 100 nM)	relative cell number ([5]; 1000 nM)	relative cell number ([5]; 10000 nM)
C=C1C[C@@H]2[C@H](CC[C@]3(C)C(=O)CC[C@@H]23)[C@@]2(C)C=CC(=O)C=C12 [Exemestane]	99.8 ± 6	89.5 ± 1.1	103 ± 5.9	95.4 ± 9.2	108 ± 28	92 ± 12	113 ± 3.1	109 ± 25	89.3 ± 13	88.2 ± 22	80.5 ± 6	69.8 ± 21	108 ± 22	93.4 ± 18	115 ± 9.4	102 ± 12	123 ± 22	82.5 ± 26	104 ± 67	99 ± 4.8
CC(C)n1c(/C=C/C(O)CC(O)CC(=O)O)c(-c2ccc(F)cc2)c2ccccc21 (stereo not given) [Fluvastatin]	67.8 ± 3.3	95 ± 7	97.3 ± 4.6	72.2 ± 16	110 ± 7.6	102 ± 6.7	96.6 ± 11	65.4 ± 2.2	108 ± 46	92.1 ± 46	30.8 ± 7.9	10.6 ± 3.6	64.9 ± 4	87.3 ± 1.6	82.5 ± 41	51 ± 34	78.2 ± 28	83.5 ± 20	62.6 ± 22	78.7 ± 1.4
C[C@]12CC[C@@H]3c4ccc(O)cc4C[C@@H](CCCCCCCCC[S+]([O-])CCCC(F)(F)C(F)(F)F)[C@H]3[C@@H]1CC[C@@H]2O (stereo not given in full) [Fulvestrant]	95.9 ± 6.4	79.5 ± 6.8	86.6 ± 16	110 ± 24	83.8 ± 12	102 ± 2	103 ± 6.4	94.5 ± 1.7	83.6 ± 3.7	93.5 ± 22	89.8 ± 4	92 ± 12	90.75 ± 0.73	48.8 ± 3.3	65.8 ± 26	65.9 ± 19	66.3 ± 28	41.9 ± 3.1	73.3 ± 26	84 ± 39
OCCn1cc(-c2ccc3c(c2)CC/C3=N\O)c(-c2ccncc2)n1 [GDC0879]	103 ± 17	112 ± 4.5	130 ± 8	110 ± 1.5	104 ± 17	124 ± 10	134 ± 12	107 ± 4.3	114 ± 15	92 ± 2.5	106 ± 4.8	105 ± 5.9	114 ± 27	151 ± 3.4	81.8 ± 29	110 ± 11	128.7 ± 1.1	137 ± 11	131 ± 12	122 ± 81
CS(=O)(=O)N1CCN(Cc2cc3nc(-c4cccc5[nH]ncc45)nc(N4CCOCC4)c3s2)CC1 [GDC0941]	106 ± 16	82.9 ± 45	59.6 ± 12	55.9 ± 24	94.3 ± 5.9	95 ± 5.9	79.2 ± 12	33.5 ± 0.44	126 ± 30	84 ± 21	66.3 ± 8.2	44.3 ± 12	96.1 ± 17	67.8 ± 33	38.6 ± 4.8	35.6 ± 8.4	94.4 ± 15	62.4 ± 20	52.5 ± 23	26.1 ± 8.7
